Patent US7273880B2, “Selective NPY (Y5) antagonists” (H. Lunbeck A/S, priority 1999, dated 2007)
pKi: −log10 of the molar value. Where two headings read alike, the source gives them in different places.

Legend:
[1] = biological target: T1, human Y5 receptor (h NPY-5) (Homo sapiens, UniProt Q15761); assay: Functional assay: radioimmunoassay of cAMP; type: cell-based; settings: functional antagonism, forskolin-stimulated cAMP, cells stably transfected with human Y5
T1 construct: expressed in transfected cells; host or cells: mouse fibroblast LM(tk-) cells, e.g. L-hY5-7 (ATCC CRL-11995)
T1 sequence (Q15761 1-445): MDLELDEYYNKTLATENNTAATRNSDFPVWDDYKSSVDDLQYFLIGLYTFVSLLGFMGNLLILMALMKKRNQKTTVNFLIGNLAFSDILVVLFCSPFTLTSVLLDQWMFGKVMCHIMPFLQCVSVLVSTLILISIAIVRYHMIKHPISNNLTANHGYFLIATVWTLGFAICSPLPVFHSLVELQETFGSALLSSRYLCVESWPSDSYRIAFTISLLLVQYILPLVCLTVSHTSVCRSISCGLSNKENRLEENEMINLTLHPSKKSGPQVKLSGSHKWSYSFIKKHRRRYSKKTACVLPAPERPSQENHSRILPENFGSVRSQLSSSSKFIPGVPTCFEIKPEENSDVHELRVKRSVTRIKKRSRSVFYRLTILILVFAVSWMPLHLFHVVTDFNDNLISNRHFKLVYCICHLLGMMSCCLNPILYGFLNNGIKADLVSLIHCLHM
Method: LM(tk-) cells stably transfected with the human Y5 receptor were routinely converted from an adherent monolayer to a viable suspension. Adherent cells were harvested with trypsin at the point of confluence, resuspended in a minimal volume of complete DMEM for a cell count, and further diluted to a concentration of 10^6 cells/ml in suspension media (10% bovine calf serum, 10% 10× Medium 199 (Gibco), 9 mM NaHCO3, 25 mM glucose, 2 mM L-glutamine, 100 units/ml penicillin/100 μg/ml streptomycin, and 0.05% methyl cellulose). The cell suspension was maintained in a shaking incubator at 37° C., 5% CO2 for 24 hours. Membranes harvested from cells grown in this manner may be stored as large, uniform batches in liquid nitrogen. Alternatively, cells may be returned to adherent cell culture in complete DMEM by distribution into 96-well microtiter plates coated with poly-D-lysine (0.01 mg/ml) followed by incubation at 37° C., 5% CO2 for 24 hours. Cells prepared in this manner yielded a robust and reliable NPY-dependent response in cAMP radio-immunoassays as further described hereinbelow.
Stably transfected cells were seeded into 96-well microtiter plates and cultured until confluent. To reduce the potential for receptor desensitization, the serum component of the media was reduced to 1.5% for 4 to 16 hours before the assay. Cells were washed in Hank's buffered saline, or HBS (150 mM NaCl, 20 mM HEPES, 1 mM CaCl2, 5 mM KCl, 1 mM MgCl2, and 10 mM glucose) supplemented with 0.1% bovine serum albumin plus 5 mM theophylline and pre-equilibrated in the same solution for 20 min at 37° C. in 5% CO2. Cells were then incubated 5 min with 10 μM forskolin and various concentrations of receptor-selective ligands. The assay was terminated by the removal of HBS and acidification of the cells with 100 mM HCl. Intracellular cAMP was extracted and quantified with a modified version of a magnetic bead-based radioimmunoassay (Advanced Magnetics, Cambridge, Mass.). The final antigen/antibody complex was separated from free ^125I-cAMP by vacuum filtration through a PVDF filter in a microtiter plate (Millipore, Bedford, Mass.). Filters were punched and counted for ^125I in a Packard gamma counter. Binding data were analyzed using nonlinear regression and statistical techniques available in the GraphPAD Prism package (San Diego, Calif.).

[2] = biological target: T2, human Y5 receptor (hNPY-5) (Homo sapiens, UniProt Q15761); assay: Radioligand binding to membranes, cloned human Y5 receptor; settings: for pKi: binding Ki as repeated in Table 4, read-out: Ki (h NPY-5); for Ki: cloned human NPY Y5 receptor, radioligand competition binding, Tables 1-3, read-out: Ki, nM hNPY-5
T2 construct: expressed in transfected cells; host or cells: mouse fibroblast LM(tk-) cells, e.g. L-hY5-7 (ATCC CRL-11995)
T2 sequence (Q15761 1-445): T1 sequence (Q15761 1-445)
Summary of the method: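 Competition binding on membranes from stably transfected 293 or LM(tk-) cells, with 0.08 nM ¹²⁵I-PYY in pH 7.4 HEPES buffer plus 0.1% BSA, 120 min at 30 °C, filtration and counting. Nonspecific binding defined by 300 nM human NPY, or 100 nM human PP for Y4; nonlinear regression.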

[3] = biological target: hNPY-1,2,4 (human Y1, Y2, Y4 receptors); assay: Radioligand binding to membranes, cloned human Y1, Y2 and Y4 receptors; settings: one bound given for all three
Method: Binding of the compounds of the present invention to human Y1, Y2, Y4, and Y5 receptors was evaluated using stably transfected 293 or LM(tk-) cells as described above. Stably transfected cell lines which may be used for binding assays include, for example, for the human Y1 receptor, 293-hY1-5 (deposited Jun. 4, 1996, under ATCC Accession No. CRL-12121), for the human Y2 receptor, 293-hY2-10 (deposited Jan. 27, 1994, under ATCC Accession No. CRL-11537), for the human Y4 receptor, L-hY4-3 (deposited Jan. 11, 1995, under ATCC Accession No. CRL-11779), and for human Y5 receptor, L-hY5-7 (deposited Nov. 15, 1995, under ATCC Accession No. CRL-11995). These cell lines were deposited with the American Type Culture Collection (ATCC), 10801 University Blvd., Manassas, Va. 20110-2209, U.S.A. under the provisions of the Budapest Treaty for the International Recognition of the Deposit of Microorganisms for the Purposes of Patent Procedure.
Membranes were harvested from COS-7 cells 48 hours after transient transfection. Adherent cells were washed twice in ice-cold phosphate buffered saline (138 mM NaCl, 8.1 mM Na2HPO4, 2.5 mM KCl, 1.2 mM KH2PO4, 0.9 mM CaCl2, 0.5 mM MgCl2, pH 7.4) and lysed by sonication in ice-cold sonication buffer (20 mM Tris-HCl, 5 mM EDTA, pH 7.7). Large particles and debris were cleared by low speed centrifugation (200×g, 5 min, 4° C.). Membranes were collected from the supernatant fraction by centrifugation (32,000×g, 18 min, 4° C.), washed with ice-cold hypotonic buffer, and collected again by centrifugation (32,000×g, 18 min, 4° C.). The final membrane pellet was resuspended by sonication into a small volume of ice-cold binding buffer (˜1 ml for every 5 plates: 10 mM NaCl, 20 mM HEPES, 0.22 mM KH2PO4, 1.26 mM CaCl2, 0.81 mM MgSO4, pH 7.4). Protein concentration was measured by the Bradford method (Bradford, 1976) using Bio-Rad Reagent, with bovine serum albumin as a standard. Membranes were held on ice for up to one hour and used fresh, or flash-frozen and stored in liquid nitrogen.
Membranes were prepared similarly from 293, LM(tk-), and NIH-3T3 cells. To prepare membranes from baculovirus infected cells, 2×10^7 Sf21 cells were grown in 150 mm tissue culture dishes and infected with a high-titer stock of hY5BB3. Cells were incubated for 2-4 days at 27° C., no CO2 before harvesting and membrane preparation as described above.
Membrane suspensions were diluted in binding buffer supplemented with 0.1% bovine serum albumin to yield an optimal membrane protein concentration so that ^125I-PYY (or alternative radioligand such as ^125I-NPY, ^125I-PYY3-36, or ^125I-[Leu^31Pro^34]PYY) bound by membranes in the assay was less than 10% of ^125I-PYY (or alternative radioligand) delivered to the sample (100,000 dpm/sample=0.08 nM for competition binding assays). ^125I-PYY (or alternative radioligand) and peptide competitors were also diluted to desired concentrations in supplemented binding buffer. Individual samples were then prepared in 96-well polypropylene microtiter plates by mixing 125I-PYY (25 μL) (or alternative radioligand), competing peptides or supplemented binding buffer (25 μL), and finally, membrane suspensions (200 μL). Samples were incubated in a 30° C. water bath with constant shaking for 120 min. Incubations were terminated by filtration over Whatman GF/C filters (pre-coated with 1% polyethyleneimine and air-dried before use), followed by washing with 5 mL of ice-cold binding buffer. Filter-trapped membranes were impregnated with MeltiLex solid scintillant (Wallac, Turku, Finland) and counted for ^125I in a Wallac Beta-Plate Reader. Alternatively, incubations were carried out in GF/C filter plates (pre-coated with 1% polyethyleneimine and air-dried before use), followed by vacuum filtration and three washes of 300 μL of ice-cold binding buffer. 50 μL of UltimaGold (Packard) scintillant were added and counted for ^125I in a Wallac MicroBeta Trilux. […]

SMILES | Kb [1] [nM] | pKi [2] | Ki [2] [nM] | Ki [3] [nM] | melting point [°C]
CS(=O)(=O)N[C@H]1CC[C@H](Nc2nc3c(s2)CCCc2ccc(F)cc2-3)CC1 [Example 34, trans-1-Aza-9-fluoro-4,5-dihydro-2-(4-methyl-sulfonylamino)-cyclohexylamino-3-thia-benzo[e]azulene] | 63.1 | 7.47 | 34 | – | 179 to 181
O=S(=O)(CC(F)(F)F)N[C@H]1CC[C@H](Nc2nc3c(s2)CCCc2ccc(F)cc2-3)CC1 [Example 38, trans-1-Aza-9-fluoro-4,5-dihydro-2-(4-(2,2,2-trifluoro-ethyl)sulfonylamino)cyclohexylamino-3-thia-benzo [e]azulene] | – | – | 15.8 | > 10000 | 89 to 91
CS(=O)(=O)NCCCCC(=O)Nc1nc2c(s1)CCCc1ccc(F)cc1-2 [Example 45, N1-(9-fluoro-5,6-dihydro-4H-benzo[6,7]cyclohepta-[d][1,3]thiazol-2-yl)-5-[(methylsulfonyl)amino]-pentanamide] | – | – | 65 | > 10000 | 145 to 147
NS(=O)(=O)NC[C@H]1CC[C@H](Nc2nc3c(s2)CCOc2ccccc2-3)CC1 [Example 46, trans-N2-(4-Aminosulfonylaminomethyl)cyclohexyl-4,5-dihydro-benzo[2,3]oxepino[4,5-d][1,3]thiazol-2-amine] | – | – | 34 | > 10000 | 170 to 173
CS(=O)(=O)NC[C@H]1CC[C@H](Nc2nc3c(s2)CCOc2ccccc2-3)CC1 [Example 47, trans-N2-(4-Methylsulfonylaminomethyl)cyclohexyl-4,5-dihydro-benzo[2,3]oxepino[4,5-d][1,3]thiazol-2-amine] | – | – | 22 | > 10000 | 67 to 69
O=C1OCCN1C[C@H]1CC[C@H](Nc2nc3c(s2)CCCc2ccc(F)cc2-3)CC1 [Example 79, 3-({4-[(9-fluoro-5,6-dihydro-4H-benzo[6,7]cyclohepta-[d][1,3]thiazol-2-yl)amino]cyclohexyl}methyl)-1,3-oxazolan-2-one] | 12.6 | 7.70 | 20 | – | –
COCC(=O)NC[C@H]1CC[C@H](Nc2nc3c(s2)CCCc2ccc(F)cc2-3)CC1 [Example 80, N1-({4-[(9-fluoro-5,6-dihydro-4H-benzo[6,7]-cyclohepta-[d][1,3]thiazol-2-yl)amino]cyclohexyl}-methyl)-2-methoxyacetamide] | 39.8 | 7.48 | 33 | – | –

More lines, in order of falling Ki [2], values ahead:

Kb [1] [nM] | pKi [2] | Ki [2] [nM] | Ki [3] [nM] | melting point [°C] | SMILES
– | – | 15.5 | > 10000 | 50 to 53 | Cn1cnc(S(=O)(=O)NCCCCCNc2nc3c(s2)CCCc2ccc(F)cc2-3)c1 [Example 23, 1-Aza-9-fluoro-4,5-dihydro-2-(5-(1-methylimidazol-4-yl)sulfonylamino)pentylamino-3-thia-benzo[e]azulene]
7.94 | 7.82 | 15.3 | – | 64 to 67 | CS(=O)(=O)N[C@H]1CC[C@H](CNc2nc3c(s2)CCOc2ccccc2-3)CC1 [Example 50, trans-N2-(4-Methylsulfonylamino)cyclohexylmethyl-4,5-dihydro-benzo[2,3]oxepino[4,5-d][1,3]thiazol-2-amine]
– | – | 7.4 | > 10000 | 230 to 231 | O=S(=O)(N[C@H]1CC[C@H](Nc2nc3c(s2)CCCc2ccc(F)cc2-3)CC1)c1cccs1 [Example 37, trans-1-Aza-9-fluoro-4,5-dihydro-2-(4-(2-thienyl)-sulfonyl-amino)cyclohexylamino-3-thia-benzo[e]azulene]
– | – | 6.5 | > 10000 | 172 to 174 | CCN(CC)S(=O)(=O)N[C@H]1CC[C@H](Nc2nc3c(s2)CCCc2ccc(F)cc2-3)CC1 [Example 35, trans-1-Aza-9-fluoro-4,5-dihydro-2-(4-diethylamino-sulfonylamino)cyclohexylamino-3-thia-benzo[e]azulene]
– | – | 5 | > 10000 | 152 to 154 | O=S(=O)(NCCCCCNc1nc2c(s1)CCCc1ccc(F)cc1-2)c1cccs1 [Example 19, 1-Aza-9-fluoro-4,5-dihydro-2-(5-(2-thienyl)-sulfonylamino)-pentylamino-3-thia-benzo[e]azulene]
2.51 | 8.49 | 3.2 | – | – | COc1ccc(C)cc1S(=O)(=O)NCCCCCNc1nc2c(s1)CCCc1ccc(F)cc1-2 [Example 15, 1-Aza-9-fluoro-4,5-dihydro-2-(5-(2-methoxy-5-methyl-phenyl)sulfonylamino)pentylamino-3-thia-benzo[e]-azulene]
